Experimental findings from patent EP1164141A2, “Opioid peptides and their use for treatment of pain” (AstraZeneca AB, priority 1994, dated 2001) are described below.

Square brackets hold non-standard residues; d marks the D form. Peptide text beside a SMILES is read from it. dNva = CCC[C@@H](N)C(=O)O

As a reminder, the ED50 is the midpoint of the dose-response relation.

Series [1] deals with mice. In words: hot plate test (central analgesia). The format is in vivo. Conditions: for central analgesic effect: mouse hot plate test, even at doses of 100 mg/kg. The text has this: (§1) The term "ED50" as shown in table 1 for the PBQ writhing assays is defined as the dose of drug which induces a 50% reduction in the number of writhes observed compared to the control. The term "ED50" used in the hot-plate assays is defined as the dose of drug required to increase the latency of response 2-fold compared to controls and was determind by parallel-line probit analysis.
(§2) PBQ (phenyl-ρ-benzoquinone) induced writhing in mice is an assessment of both central and peripheral analgesia. For experimental protocol see Sigmund et al., Proc. Soc. Exp. Biol. Med., 95, p. 729 (1957) which is incorporated herein by reference. Central analgesia was determined by the inhibition of a hot plate response in mice. For experimental protocol see G. Woolfe and A. Macdonald, J. Pharmacol. Exp. Ther., 80, p.300 (1944) which is incorporated herein by reference. Assays measuring opioid receptor binding affinities for µ and δ receptors as well as GPI and MVD assays were determined through experimental protocol set out in Schiller et al., Biophys. Res. Commun., 85, p.1322 (1975) incorporated herein by reference.
For this test, CD #1 male mice weighing between 20 and 25g were used. The mice were weighed, marked, and divided into groups of 10.
The mice were usually treated by subcutaneous injection of the compound (or the standard or the medium) in an injection volume equivalent to 0.1 ml/10g p.c. (10ml/kg). If an antagonist such as Nalaxone or N-methyl-Levallorphan was used, it was administered intra-peritoneally 20 minutes before the compound (or the standard, or the medium) was administered. The injection volume was also 0.1 ml/10g p.c. The dose of the antagonist was 10 mg/kg.
The mice were individually evaluated for reaction time on the hot plate. The temperature of the hot plate (Sorel, model DS37) was set at 55°C. […] The mice may be observed at different time intervals after administration of the compound (or medium, or standard). The time intervals may be 30, 60 or 120 minutes (or other).
For each time reading, the average reaction time of the control group was multiplied by 1.5. The reaction time of each treated mouse was compared to the "control average X 1.5.". […] The number of analgesic mice in a group determined the analgesic percentage of the compound for this reading.
(In general: Thermal pain tests record how soon the animal reacts.)

Series [2] has as its system mice. Description: PBQ (phenylquinone) induced writhing assay. The arrangement: ED50 value: unit not given beside the values. The format is in vivo. Particulars: for ED50 value: as shown in Table 1, PBQ writhing, unit not given; for peripheral analgesia: statement in words, writhing compared with hot plate.
Source text: as §1, §2
The test was performed on CD #1 male mice weighing between 18 and 22g. The mice were weighed and marked. They were injected, by intra-peritoneal route, with 0.3ml/20g by weight with a solution of phenylquinone at 0.02%. The contortions which appeared during a 15 minute time period following the injection were counted. The phenylquinone was injected at time intervals of 5, 20 or 60 minutes after administration of the compound (or medium, or standard) by subcutaneous route. It was injected at time intervals of 60 minutes after the administration of the compound (or medium, or standard) by oral route;
The 0.02% phenylquinone^3 solution was prepared in the following fashion. 20mg of phenylquinone was dissolved in 5ml ethanol 90% (sigma, reagent, alcohol). The dissolved phenylquinone was slowly added to 95 ml of distilled water continuously shaken and preheated (not boiled). The phenylquinone solution was, at all times protected from light and a new solution was prepared every day for the test. It is recommended to wait 2 hours before using the phenylquinone solution. ** 2-phenyl-1,4-benzoquinone (Sigma)
The test may be carried out on 5 mice at the same time. Each group usually contained 10 mice. If an antagonist, such as naloxone, was used, it was administered 20 minutes before the compound (or the medium, or the standard) by intra-peritoneal route.
On the technique in general: In writhing tests, fewer writhes than in controls are read as antinociception.

Series [3] concerns mice. Description: lethality / safety after i.v. or s.c. administration. In kind it is in vivo. The protocol:
Therefore, the desired route of administration for these compounds is subcutaneous. Thus, the structural paradigm exemplified by BCH1774 can be modified while maintaining exclusion from the central nervous system even at doses as high as 100 mg kg^-1 s.c. and the deleterious i.v. toxicity can be minimized. Thus BCH2463 is not lethal to mice at doses at least as high as 20 mg kg^-1 (i.v.).

A short description of series [4]: degradation on exposure to brush border kidney membranes. The format is in vitro ADME. Conditions: exposed to brushborder kidney membranes. The text has this:
Many of the compounds listed in Table 1 show good µ-receptor binding but show weak analgesic effect in the mouse writhing assay. This anomaly may be due to rapid proteolysis, rapid clearence, or both. […] These three compounds are H-Tyr-D-Nva-Phe-Phe-NH2 (BCH2462), H-Tyr-D-Ser-Phe-Phe-NH2 (BCH2463), and H-Tyr-D-Arg-Phe-Phe-NH2 (BCH2687).
The effects of inhibition of proteolytic metabolism of BCH2463 by the inhibitor DL-Thiorphan has been studied and also the metabolic breakdown of BCH2463 mediated by brush border kidney membranes. The data obtained indicate that the kidney may be the principal site of clearance and metabolism for the compound BCH2463. From Figure 2, it appears that the endopeptidase enzyme EC24-11, which is inhibited by DL-thiorphan, is the preliminary mediator of BCH2463 proteolysis by brush border kidney extract.

For the molecule `N=C(N)NCCC[C@@H](NC(=O)[C@@H](N)Cc1ccc(O)cc1)C(=O)N[C@@H](Cc1ccccc1)C(=O)N[C@@H](Cc1ccccc1)C(N)=O` [BCH2687, H-Tyr-D-Arg-Phe-Phe-NH2] (H-Y[dR]FF-NH2), the reaction time result in series [1] (Figs. 1C, 1D, dose not given) is given as “approximately 8 seconds”. Moreover, in series [1], the central analgesic effect entry is recorded as “No central analgesic effect was observed”. For the same molecule, in series [2], the ED50 value was 0.5 and the peripheral analgesia entry is recorded as “exhibit peripheral analgesia”.

Take `CCC[C@@H](NC(=O)[C@@H](N)Cc1ccc(O)cc1)C(=O)N[C@@H](Cc1ccccc1)C(=O)N[C@@H](Cc1ccccc1)C(N)=O` [BCH2462, H-Tyr-D-Nva-Phe-Phe-NH2] (H-Y[dNva]FF-NH2): the reaction time entry in series [1] (Figs. 1C, 1D, dose not given) was “approximately 8 seconds”. The central analgesic effect entry in series [1] is “No central analgesic effect was observed”. Besides, in series [2], the ED50 value stood at 2.7 and the peripheral analgesia entry is reported as “exhibit peripheral analgesia”. Moreover, the “lethal effects upon mice” value in series [3] (1-5 mg kg^-1 i.v. bolus dose) is given as “exhibited lethal effects”.

Regarding `C[C@@H](NC(=O)[C@@H](N)Cc1ccc(O)cc1)C(=O)N[C@@H](Cc1ccccc1)C(=O)N[C@@H](Cc1ccccc1)C(N)=O` [BCH1774, H-Tyr-D-Ala-Phe-Phe-NH2] (H-Y[dA]FF-NH2), the central analgesic effect result in series [1] is “lack of analgesic effect”. The “duration in vivo of analgesic effects” value in series [2] (20 mg/kg s.c. of BCH1774 compared with 30 mg/kg s.c. of BCH2463 (Figure 3)) was “lasted longer than for BCH2463”. Besides, the ED50 value in series [2] is listed as 1.4. Further, the “time within which rapidly degraded” value in series [4] was in the range of 15 to 30 min. The “lethal effects upon mice” value in series [3] (1-5 mg kg^-1 i.v. bolus dose) is on record as “exhibited lethal effects”.

`NC(=O)[C@H](Cc1ccccc1)NC(=O)[C@H](Cc1ccccc1)NC(=O)[C@@H](CO)NC(=O)[C@@H](N)Cc1ccc(O)cc1` [BCH2463, H-Tyr-D-Ser-Phe-Phe-NH2] (H-Y[dS]FF-NH2): the reaction time entry in series [1] (mice treated with 100 mg/kg (Fig 1B), control approximately 7 seconds) is “about 9 seconds”. Also, the central analgesic effect entry in series [1] is reported as “No central analgesic effect was observed”. Moreover, in series [2], the ED50 value is 0.5 and the peripheral analgesia entry is “exhibit peripheral analgesia”. The ED50 in series [2] (mouse s.c., at 20 minutes post administration (Figure 2)) was 0.5 mg/kg. In series [3] (doses up to 20 mg kg^-1 i.v.), the “lethal effects upon mice” value was “did not exhibit any lethal effects”.
